Source: patent US12011444B2, “N-substituted indole derivatives as PGE2 receptor modulators” (Idorsia Pharmaceuticals Ltd, priority 2015, dated 2024)

Tests used:
EP2 = EP2 (Homo sapiens (Human), UniProt P43116);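 note: antagonism of PGE2-stimulated cAMP accumulation in SF295 human glioblastoma cells with endogenous EP2, cAMP read by HTRF, expressed relative to DMSO control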
EP4 = EP4 (Homo sapiens (Human), UniProt P35408); experiment: hEP4 cAMP assay (BT549 breast cancer cells, HTRF cAMP); type: cell-based; settings: antagonistic activity; mean values where measured multiple times
Procedure: Plate is pre-incubated 45 minutes at room temperature. Subsequently, 2.5 microliters of PGE2 (final conc. 6 nM) are transferred into the assay plate. Plate is incubated 30 minutes at room temperature.

Chain of EP2 (P43116 whole entry): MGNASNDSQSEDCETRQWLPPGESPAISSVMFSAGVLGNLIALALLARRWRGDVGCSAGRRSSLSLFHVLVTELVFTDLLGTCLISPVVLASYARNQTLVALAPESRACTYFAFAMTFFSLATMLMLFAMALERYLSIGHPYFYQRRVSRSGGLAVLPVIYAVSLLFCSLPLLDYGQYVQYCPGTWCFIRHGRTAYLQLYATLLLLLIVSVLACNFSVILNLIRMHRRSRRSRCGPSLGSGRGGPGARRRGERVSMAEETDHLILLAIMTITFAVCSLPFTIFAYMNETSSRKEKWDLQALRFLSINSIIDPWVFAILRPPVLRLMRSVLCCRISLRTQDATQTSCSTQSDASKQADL
Chain of EP4 (P35408 whole entry): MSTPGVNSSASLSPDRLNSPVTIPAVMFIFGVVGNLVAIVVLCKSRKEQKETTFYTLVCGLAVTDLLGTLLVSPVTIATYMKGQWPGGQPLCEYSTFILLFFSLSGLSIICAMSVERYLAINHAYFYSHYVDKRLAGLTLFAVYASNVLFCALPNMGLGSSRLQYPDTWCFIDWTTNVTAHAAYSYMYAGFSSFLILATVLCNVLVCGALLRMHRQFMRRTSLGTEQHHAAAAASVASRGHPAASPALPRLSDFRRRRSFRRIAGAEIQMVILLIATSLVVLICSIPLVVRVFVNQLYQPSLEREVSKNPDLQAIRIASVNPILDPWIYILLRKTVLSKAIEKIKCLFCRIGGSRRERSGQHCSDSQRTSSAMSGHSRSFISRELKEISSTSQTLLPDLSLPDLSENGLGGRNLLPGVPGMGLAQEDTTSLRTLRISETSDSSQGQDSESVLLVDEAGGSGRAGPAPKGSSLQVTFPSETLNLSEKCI

SMILES	IC50 (EP2)	IC50 (EP4)
COc1cc(F)c(F)c2c1cc(C)n2CCNc1cc(-c2ccc(-c3cncn3C)cc2)ncn1 [compound 641]	114 nM	153 nM
CCCOc1cc(-c2cc(NCCn3c(C)cc4c(C)cc(F)c(F)c43)ncn2)cc(F)c1C(=O)O [compound 627]	48 nM	197 nM
Cc1cc(F)cc2c1cc(C)n2CCNc1cc(-c2cc(Cl)c(C(=O)O)c(OCC(C)C)c2)ncn1 [compound 693]	20 nM	234 nM
Cc1cc(F)c(F)c2c1cc(C)n2CCNc1cc(-c2cc(Cl)c(C(=O)O)c(OCC(F)(F)F)c2)ncn1 [compound 724]	57 nM	206 nM
CCCOc1cc(-c2cc(NCCn3c(C)cc4c(C)cc(Cl)cc43)ncn2)cc(Cl)c1C(=O)O [compound 522]	21 nM	217 nM
CCCc1cc(-c2cc(NCCn3c(C)cc4cc(C)cc(F)c43)ncn2)cc(F)c1C(=O)O [compound 417]	28 nM	396 nM
CCCOc1cc(-c2cc(NCCn3c(C)cc4c(OC)cc(F)cc43)ncn2)cc(F)c1C(=O)O [compound 608]	24 nM	126 nM
Cc1ccc(Cl)c2c1cc(C)n2CCNc1cc(-c2ccc(C(=O)O)c(SC(C)C)c2)ncn1 [compound 410]	51 nM	390 nM
CCOc1cc(-c2cc(NCCn3c(C#N)cc4c(OC)cc(F)cc43)ncn2)ccc1C(=O)O [compound 480]	26 nM	75 nM
Cc1ccc(Cl)c2c1cc(C)n2CCNc1cc(-c2ccc(C(=O)O)c(SC3CCC3)c2)ncn1 [compound 452, 4-{6-[2-(7-Chloro-2,4-dimethyl-indol-1-yl)-ethylamino]-pyrimidin-4-yl}-2-cyclobutylsulfanyl-benzoic acid]	34 nM	468 nM
COc1ccc(F)c2c1cc(C)n2CCNc1cc(-c2ccc3c(=O)[nH][nH]c3c2)ncn1 [Example 773, 6-{6-[2-(7-Fluoro-4-methoxy-2-methyl-indol-1-yl)-ethylamino]-pyrimidin-4-yl}-1,2-dihydro-indazol-3-one]	32 nM	49 nM
Cc1c(F)cc(Cl)c2c1cc(C)n2CCNc1cc(-c2ccc(C(=O)O)c(SC(C)C)c2)ncn1 [compound 504]	103 nM	535 nM
CCc1cc(-c2cc(NCCn3c(C)cc4c(OC)cc(F)cc43)ncn2)cc(Cl)c1C(=O)O [compound 438]	64 nM	106 nM
CCOc1cc(-c2cc(NCCn3c(C)cc4c(OC)cc(F)cc43)nc(C(F)(F)F)n2)sc1C(=O)O [compound 635]	50 nM	186 nM
COc1cc(-c2cc(NCCn3c(C)cc4c(OC)ccc(F)c43)ncn2)cc(Cl)c1C(=O)O [compound 401]	19 nM	182 nM
COc1c(F)cc(Cl)c2c1cc(C)n2CCNc1cc(-c2ccc(C(=O)O)c(SC)c2)ncn1 [compound 448]	46 nM	508 nM
Cc1ccc(F)c2c1cc(C)n2CCNc1cc(-c2ccc3nn[nH]c3c2)ncn1 [compound 739, [6-(3H-Benzotriazol-5-yl)-pyrimidin-4-yl]-[2-(7-fluoro-2,4-dimethyl-indol-1-yl)-ethyl]-amine]	43 nM	450 nM
Cc1cc(F)cc2c1cc(C#N)n2CCNc1cc(-c2ccc(C(=O)O)c(CC(C)C)c2)ncn1 [compound 481]	61 nM	112 nM
COc1cc(Cl)cc2c1cc(C)n2CCNc1cc(-c2ccc(C(=O)O)c(CC(C)C)c2)ncn1 [compound 529]	19 nM	110 nM
CCCc1cc(-c2cc(NCCn3c(C)cc4c(OC)ccc(Cl)c43)ncn2)cc(OCC)c1C(=O)O [compound 633]	60 nM	750 nM
CCOc1cc(-c2cc(NCCn3c(C)cc4cc(C)cc(F)c43)ncn2)cc(F)c1C(=O)O [compound 436]	46 nM	787 nM
Cc1cc(F)cc2c1cc(C)n2CCNc1cc(-c2ccc(-c3nc(C(=O)O)cs3)cc2)ncn1 [compound 545]	29 nM	119 nM
COc1ccc(F)c2c1cc(C)n2CCNc1cc(-c2ccc(C(=O)O)c3c2ccn3C)ncn1 [compound 470]	63 nM	735 nM

Now those with a lower IC50 (EP2), led by results:

IC50 (EP2)	IC50 (EP4)	SMILES
18 nM	178 nM	COc1ccc(F)c2c1cc(C)n2CCNc1cc(-c2ccc(-c3ccccn3)cc2)ncn1 [compound 590]
16 nM	429 nM	COc1cc(F)c(F)c2c1cc(C)n2CCNc1cc(-c2ccc(C(=O)CC#N)cc2)ncn1 [compound 711, 3-(4-{6-[2-(6,7-Difluoro-4-methoxy-2-methyl-indol-1-yl)-ethylamino]-pyrimidin-4-yl}-phenyl)-3-oxo-propionitrile]
16 nM	240 nM	COc1cc(F)cc2c1cc(C)n2CCNc1cc(-c2ccc(-c3cc(C)no3)cc2)ncn1 [compound 715, [2-(6-Fluoro-4-methoxy-2-methyl-indol-1-yl)-ethyl]-{6-[4-(3-methyl-isoxazol-5-yl)-phenyl]-pyrimidin-4-yl}-amine]
16 nM	111 nM	COc1cc(F)cc2c1cc(C)n2CCNc1cc(-c2ccc(-c3ccon3)cc2)ncn1 [compound 558]
16 nM	374 nM	CCOc1cc(-c2cc(NCCn3c(C)cc4c(OC)ccc(F)c43)ncn2)ccc1C(=O)NOC(C)C [Example 770, 2-Ethoxy-4-{6-[2-(7-fluoro-4-methoxy-2-methyl-indol-1-yl)-ethylamino]-pyrimidin-4-yl}-N-isopropoxy-benzamide]
14 nM	535 nM	COc1cc(F)cc2c1cc(C)n2CCNc1cc(-c2ccc(C(=O)CC#N)cc2)ncn1 [compound 709, 3-(4-{6-[2-(6-Fluoro-4-methoxy-2-methyl-indol-1-yl)-ethylamino]-pyrimidin-4-yl}-phenyl)-3-oxo-propionitrile]
14 nM	319 nM	Cc1cc(F)cc2c1cc(C)n2CCNc1cc(-c2ccc(C(=O)O)c(OC(F)F)c2)ncn1 [compound 600]
8 nM	79 nM	COc1cc(F)cc2c1cc(C)n2CCNc1cc(-c2ccc(C(=O)O)c(OCC(C)C)c2)ncn1 [compound 612]
6 nM	58 nM	COc1ccc(F)c2c1cc(C)n2CCNc1cc(-c2cc(Cl)c(C(=O)O)c(OCC(F)(F)F)c2)ncn1 [compound 725]
6 nM	561 nM	CCCOc1cc(-c2cc(NCCn3c(C)cc4c(F)cc(F)c(F)c43)ncn2)cc(Cl)c1C(=O)O [compound 620]
5 nM	33 nM	COc1cc(F)cc2c1cc(C)n2CCNc1cc(-c2ccc(-c3c[nH]c(C)n3)cc2)ncn1 [compound 581]
5 nM	56 nM	CCCc1cc(-c2cc(NCCn3c(C)cc4c(OC)ccc(F)c43)ncn2)cc(Cl)c1C(=O)O [compound 514]
4 nM	95 nM	CCOc1cc(-c2cc(NCCn3c(C)cc4c(OC)cccc43)ncn2)ccc1-c1nnn[nH]1 [compound 664]
2 nM	6 nM	CCCOc1cc(-c2cc(NCCn3c(C)cc4c(OC)cc(F)cc43)ncn2)sc1C(=O)O [compound 674]
1 nM	18 nM	CCOc1cc(-c2cc(NCCn3c(C)cc4c(Br)cccc43)ncn2)sc1C(=O)O [Example 781, 5-{6-[2-(4-Bromo-2-methyl-indol-1-yl)-ethylamino]-pyrimidin-4-yl}-3-ethoxy-thiophene-2-carboxylic acid]
